*1 amine or outer side, *2 acyl side, *3 side chain or, on linkers, in order; H or OH if unused. Where a SMILES comes first, the peptide text is derived from it. [ ]: non-standard residue; d: D form. X1 = O=C([C@@H]1C[C@H](Sc2ccccc2)CN1[*:1])[*:2]; pGlu = O=C1CC[C@@H](C(=O)O)N1
How the values were obtained:
[1] = target: T1, angiotensin converting enzyme (Oryctolagus cuniculus, UniProt P12822); assay: Inhibition of the angiotensin converting enzyme (IC50); format: biochemical, rabbit; details: for IC50: enzyme isolated from rabbit lungs (Cushman and Cheung)
T1 construct: The enzyme employed in this test has been isolated from rabbit lungs; from tissue; host or cells: rabbit lungs
T1 sequence (P12822 34-1310): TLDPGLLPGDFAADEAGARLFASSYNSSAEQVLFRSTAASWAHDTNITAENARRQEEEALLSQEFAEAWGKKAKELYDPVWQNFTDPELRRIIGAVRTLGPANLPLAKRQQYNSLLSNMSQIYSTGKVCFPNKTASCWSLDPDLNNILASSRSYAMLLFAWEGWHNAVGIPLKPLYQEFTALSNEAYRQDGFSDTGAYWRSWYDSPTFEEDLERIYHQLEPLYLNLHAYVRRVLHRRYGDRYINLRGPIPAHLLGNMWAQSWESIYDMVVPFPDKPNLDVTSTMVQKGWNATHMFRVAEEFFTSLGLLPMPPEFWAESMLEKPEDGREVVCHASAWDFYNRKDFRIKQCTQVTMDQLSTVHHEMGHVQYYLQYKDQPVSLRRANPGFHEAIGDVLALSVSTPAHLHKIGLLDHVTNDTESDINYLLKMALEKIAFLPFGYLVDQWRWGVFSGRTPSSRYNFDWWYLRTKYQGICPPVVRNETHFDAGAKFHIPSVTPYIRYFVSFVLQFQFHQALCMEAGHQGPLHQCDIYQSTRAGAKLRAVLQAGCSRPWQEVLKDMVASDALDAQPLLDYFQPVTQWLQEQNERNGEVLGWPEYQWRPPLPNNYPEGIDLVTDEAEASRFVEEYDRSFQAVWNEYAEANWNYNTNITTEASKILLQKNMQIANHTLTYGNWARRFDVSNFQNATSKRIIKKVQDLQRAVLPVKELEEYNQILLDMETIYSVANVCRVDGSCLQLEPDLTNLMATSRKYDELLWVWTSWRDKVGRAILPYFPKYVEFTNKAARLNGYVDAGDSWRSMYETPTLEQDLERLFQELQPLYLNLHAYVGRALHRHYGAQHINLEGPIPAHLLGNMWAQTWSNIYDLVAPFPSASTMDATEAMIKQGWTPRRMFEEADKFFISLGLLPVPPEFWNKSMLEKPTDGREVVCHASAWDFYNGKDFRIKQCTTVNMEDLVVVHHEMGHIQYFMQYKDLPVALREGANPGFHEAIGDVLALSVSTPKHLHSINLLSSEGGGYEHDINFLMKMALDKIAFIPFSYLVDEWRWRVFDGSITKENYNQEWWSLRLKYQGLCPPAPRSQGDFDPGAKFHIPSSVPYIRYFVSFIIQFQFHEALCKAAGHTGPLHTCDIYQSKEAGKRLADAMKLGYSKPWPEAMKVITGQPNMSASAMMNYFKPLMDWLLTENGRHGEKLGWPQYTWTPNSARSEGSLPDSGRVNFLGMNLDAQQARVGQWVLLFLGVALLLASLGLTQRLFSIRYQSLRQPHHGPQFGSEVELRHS
Source text: In particular, comparative experiments carried out […] in order to evaluate the ACE inhibitory activity of the compounds of the present invention gave the results reported in following table I (IC50 represents the concentration of the test compound, in μM, which inhibits the angiotensin converting enzyme by 50%. The enzyme employed in this test has been isolated from rabbit lungs according to the method by Cushman and Cheung described in Biochem. Pharmacol. 20, 1637, (1971)).

[2] = system: angiotensin converting enzyme; assay: Degradation in vitro by the angiotensin converting enzyme; format: in vitro ADME; details: in the presence of the angiotensin converting enzyme
[3] = Hypotensive effect in anesthetized normotensive rats; format: in vivo, rat; details: injected intravenously at 0.18 mg/Kg
Method: In vivo experiments carried out in anesthetized normotensive rats confirmed a hypotensive effect of the compounds of the invention as compound (a), when injected intravenously at a dosage of 0.18 mg/Kg, produced a blood pressure decrease of about 20 mmHg.

[4] = system: angiotensin converting enzyme; details: 15 minutes of preincubation; cited from earlier work
[5] = induced experimentally in rats; cited from earlier work
bradykinin = bradykinin injected directly into the coronary arteries; cited from earlier work
angiotensin I = details: infused directly into the brain; cited from earlier work

With `C[C@H](NC(=O)[C@H](Cc1ccccc1)NC(=O)[C@H](CCCCN)NC(=O)[C@@H]1CCC(=O)N1)C(=O)N1CCC[C@H]1C(=O)O` [(c), Glp--Lys--Phe--Ala--Pro--OH] ([pGlu]KFAP-OH) the IC50 [1] was 100 nM and the “degradation by / resistance towards cleavage by ACE” value [2] was “quickly degraded”.

In the case of `C[C@H](NC(=O)[C@H](Cc1ccccc1)NC(=O)[C@H](CCCCN)NC(=O)[C@@H]1CCC(=O)N1)C(=O)N1C[C@@H](Sc2ccccc2)C[C@H]1C(=O)O` [(e), Glp--Lys--Phe--Ala--Pro(S--Ph)--OH] ([pGlu]KFA[X1]-OH), the IC50 [1] is reported as 60 nM and the “degradation by / resistance towards cleavage by ACE” value [2] is reported as “quickly degraded”.

In the case of `C[C@H](C(=O)N[C@H](Cc1ccccc1)NC(=O)[C@H](CCCCN)NC(=O)[C@@H]1CCC(=O)N1)C(=O)N1C[C@@H](Sc2ccccc2)C[C@H]1C(=O)O` [(b), Glp--Lys--gPhe--(R)mAla--Pro(S--Ph)--OH], the “degradation by / resistance towards cleavage by ACE” value [2] is reported as “complete resistance”.

For `C[C@@H](C(=O)N[C@H](Cc1ccccc1)NC(=O)[C@H](CCCCN)NC(=O)[C@@H]1CCC(=O)N1)C(=O)N1CCC[C@H]1C(=O)O` [(f), Glp--Lys--gPhe--(S)mAla--Pro--OH], the “degradation by / resistance towards cleavage by ACE” value [2] was “complete resistance”.

In the case of `C[C@@H](C(=O)N[C@H](Cc1ccccc1)NC(=O)[C@H](CCCCN)NC(=O)[C@@H]1CCC(=O)N1)C(=O)N1C[C@@H](Sc2ccccc2)C[C@H]1C(=O)O` [compound (a), Glp--Lys--gPhe--(S)mAla--Pro(S--Ph)--OH], the “degradation by / resistance towards cleavage by ACE” value [2] is reported as “complete resistance” and the blood pressure decrease [3] is reported as “about 20 mmHg”.

In the case of `C[C@H](NC(=O)[C@H](Cc1c[nH]c2ccccc12)NC(=O)[C@H](CCCCN)NC(=O)[C@@H]1CCC(=O)N1)C(=O)N1CCC[C@H]1C(=O)O` [(d), Glp--Lys--Trp--Ala--Pro--OH] ([pGlu]KWAP-OH), the IC50 [1] is given as 100 nM, the “degradation by / resistance towards cleavage by ACE” value [2] is given as “quickly degraded” and the “inhibitory activity after preincubation with the angiotensin converting enzyme” value [4] is given as “complete loss of inhibitory activity”. For the same molecule, the “control of reno-vascular hypertension” value [5] was “capable of controlling”, the “in vivo activity of bradykinin” value (bradykinin) was “potentiates” and the “CNS-mediated hypertensive and tachycardic action of angiotensin I” value (angiotensin I) was “inhibits”.

With `CC(C(=O)N[C@H](Cc1ccccc1)NC(=O)[C@H](CCCCN)NC(=O)[C@@H]1CCC(=O)N1)C(=O)N1CCC[C@H]1C(=O)O` (stereo partly drawn) [Glp-Lys-gPhe-mAla-Pro-OH] the “IC50 relative to that of the natural product (BPP5a) or the uninverted peptide Glp-Lys-Phe-Ala-Pro-OH” value ([1]; in vitro) was “more than 1000 times higher”.

With `C[C@H](C(=O)N[C@H](Cc1ccccc1)NC(=O)[C@H](CCCCN)NC(=O)[C@@H]1CCC(=O)N1)C(=O)N1CCC[C@H]1C(=O)O` [(g), Glp--Lys--gPhe--(R)mAla--Pro--OH] the “degradation by / resistance towards cleavage by ACE” value [2] was “complete resistance”.

From patent US4713367A, “Retro-inverso analogs of the bradykinin potentiating peptide BPP5a” (Enichem S.p.A., priority 1986, dated 1987)
